This passage reports Efflux ratio results from patent US10544130B2, “Metallo-beta-lactamase inhibitors” (priority 2015, dated 2020).

The data set concerns Pseudomonas aeruginosa PAO1 MB9798 (efflux+, IMP-1). Particulars: ratio MITC95 PA 9798/MITC95 PA 9799; imipenem at 2 μg/mL. The procedure, abridged:
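Isogenic PAO1 pair (efflux+ MB9798, efflux− MB9799, both IMP-1) tested by microbroth MIC with fixed imipenem and/or ceftazidime, usually at CLSI breakpoint, plus fixed class A/C inhibitor against AmpC. MBL inhibitor titrated; concentration restoring susceptibility recorded and fold difference between strains taken as efflux extent.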
As to `NS(=O)(=O)c1c(S(=O)(=O)N[C@@H]2CCNC2)ccc(-c2cccc3nonc23)c1-c1nn[nH]n1` [Example 238, (R)-4-(benzo[c][1,2,5]oxadiazol-4-yl)-N^1-(pyrrolidin-3-yl)-3-(2H-tetrazol-5-yl)benzene-1,2-disulfonamide], the Efflux ratio came out at 4.00.

Turning to `NCCNS(=O)(=O)c1ccc(-c2cccc3nonc23)c(-c2nn[nH]n2)c1S(N)(=O)=O` [Example 239, N^1-(2-aminoethyl)-4-(benzo[c][1,2,5]oxadiazol-4-yl)-3-(2H-tetrazol-5-yl)benzene-1,2-disulfonamide], the Efflux ratio is 8.00.

Take `Nc1nc2c(-c3ccc(S(=O)(=O)N[C@H]4CNC[C@H]4N)c(S(N)(=O)=O)c3-c3nn[nH]n3)cccc2[nH]1` [Example 241, 4-(2-amino-1H-benzo[d]imidazol-4-yl)-N^1-((3S,4R)-4-aminopyrrolidin-3-yl)-3-(2H-tetrazol-5-yl)benzene-1,2-disulfonamide]: the Efflux ratio is given as 0.83.

For the molecule `CNc1ccc(-c2ccc(S(=O)(=O)NCCN)c(S(N)(=O)=O)c2-c2nn[nH]n2)cn1` [Example 243, N^1-(2-aminoethyl)-4-(6-(methylamino)pyridin-3-yl)-3-(2H-tetrazol-5-yl)benzene-1,2-disulfonamide], the Efflux ratio turned out to be 1.00.

`Nc1nc2c(-c3ccc(S(=O)(=O)NC4CNC4)c(S(N)(=O)=O)c3-c3nn[nH]n3)cccc2[nH]1` [Example 252, 4-(2-amino-1H-benzo[d]imidazol-4-yl)-N1-(azetidin-3-yl)-3-(2H-tetrazol-5-yl)benzene-1,2-disulfonamide]: the Efflux ratio was found to be 0.68.

Take `Cc1ccc(-c2ccc(S(=O)(=O)N[C@@H]3CCNC3)c(S(N)(=O)=O)c2-c2nn[nH]n2)c2nc(N)[nH]c12` [Example 285, (R)-4-(2-amino-7-methyl-1H-benzo[d]imidazol-4-yl)-N1-(pyrrolidin-3-yl)-3-(2H-tetrazol-5-yl)benzene-1,2-disulfonamide]: the Efflux ratio amounted to 1.00.

Consider `N[C@H](CO)CNS(=O)(=O)c1ccc(-c2cccc3[nH]cnc23)c(-c2nn[nH]n2)c1S(N)(=O)=O` [Example 296, (S)—N^1-(2-amino-3-hydroxypropyl)-4-(1H-benzo[d]imidazol-4-yl)-3-(2H-tetrazol-5-yl)benzene-1,2-disulfonamide], for which the Efflux ratio is 1.00.

For the molecule `NC[C@@H](O)CNS(=O)(=O)c1ccc(-c2cccc3[nH]c(N)nc23)c(-c2nn[nH]n2)c1S(N)(=O)=O` [Example 298, (R)-4-(2-amino-1H-benzo[d]imidazol-4-yl)-N1-(3-amino-2-hydroxypropyl)-3-(2H-tetrazol-5-yl)-benzene-1,2-disulfonamide], the Efflux ratio stood at 0.69.

Turning to `NCc1nc2c(-c3ccc(S(=O)(=O)NC[C@H](O)CN)c(S(N)(=O)=O)c3-c3nn[nH]n3)cccc2s1` [Example 300, (R)—N1-(3-amino-2-hydroxypropyl)-4-(2-(aminomethyl)benzo[d]thiazol-4-yl)-3-(2H-tetrazol-5-yl)benzene-1,2-disulfonamide], the Efflux ratio is given as 1.00.

As to `NC[C@@H](O)CNS(=O)(=O)c1ccc(-c2cccc3[nH]cnc23)c(-c2nn[nH]n2)c1S(N)(=O)=O` [Example 301, (R)-4-(1H-benzo[d]imidazol-4-yl)-N1-(3-amino-2-hydroxypropyl)-3-(2H-tetrazol-5-yl)-benzene-1,2-disulfonamide], the Efflux ratio was determined as 1.00.

Consider `NC[C@@H](O)CNS(=O)(=O)c1ccc(-c2ccc(N)nc2)c(-c2nn[nH]n2)c1S(N)(=O)=O` [Example 303, (R)-N1-(3-amino-2-hydroxypropyl)-4-(6-aminopyridin-3-yl)-3-(2H-tetrazol-5-yl)benzene-1,2-disulfonamide], for which the Efflux ratio is reported as 1.00.

As for `NCc1nc2c(-c3ccc(S(=O)(=O)NC[C@@H](O)CN)c(S(N)(=O)=O)c3-c3nn[nH]n3)cccc2[nH]1` [Example 305, (S)—N1-(3-amino-2-hydroxypropyl)-4-(2-(aminomethyl)-1H-benzo[d]imidazole-4-yl)-3-(2H-tetrazol-5-yl)benzene-1,2-disulfonamide], the Efflux ratio was found to be 1.00.
